Structures can show the parent of a compound that is named as a salt. Where two headings read alike, the source gives them in different places.
Experiments:
[1] = tested on: RFP gene downstream of a T7 promoter in E. coli; test: IPTG inducer concentration optimization, RFP expression dose-response (AIMS and macro-scale); type: cell-based; conditions: after four hours
Experimental: For inducer concentration optimization carried out in the macroscale, starter cultures with a RFP plasmid were prepared at OD 0.1 from overnight inoculations. The cultures were grown at 37° C. with shaking and were induced upon reaching OD 0.4. 45 mL of the culture was induced at 200 micromolar and diluted with fresh media to generate the following IPTG concentrations: 200, 133.3, 88.9, 59.3, 40, 26.7, 17.8, and 11.9 micromolar. These sub-cultures were prepared in triplicates along with a non-induced control and were induced at 37° C. and shaken for 4 hours. After induction, 200 microliters of each culture were loaded onto a 96-well plate and fluorescence at 612 nm was measured with 582 nm excitation on a TECAN Infinite M200 plate reader (Mannedorf, Switzerland) with the settings: gain of 75, 25 flashes and 20 microseconds integration time. The fluorescence intensity with increasing IPTG concentration was plotted on a logarithmic scale to generate a dose-response curve.
In the inducer concentration optimization program, three unit droplets of 1.42 microliters containing transformed RFP-cells were dispensed from the culture region and mixed with 0.3 microliters of 3.24 mM IPTG. This droplet was actuated to an empty reservoir and one daughter droplet was split from this reservoir and actuated to the incubation region. […]

[2] = tested on: H1299 cells; test: On-chip (ACE digital microfluidic) sorafenib dose-response, cell viability by Calcein-AM cell count; type: cell-based, Human; conditions: for IC50: Homo sapiens
Source text: Similarly, in the microscale, the transfection protocol is followed for seeding cells and the 7-step protocol for transfection of the pCRISPR plasmid containing sgRNA targeting eGFP or Raf-1. The standard step 7 was replaced with step 7a and step 7b. In step 7a, sorafenib tosylate in complete media was actively dispensed into unit droplets and then diluted in liquid media to form six different concentrations (0 micromolar, 7.5 micromolar, 15 micromolar, 30 micromolar, 60 micromolar, 120 micromolar) of which one droplet (0.7 microliters) was used to passively dispense onto each hydrophilic spot and the other droplet was saved for future dilutions. After all cells were interrogated with the drugs, they were incubated for two days. In step 7b, six unit droplets of 5 micromolar Calcein-AM violet stain were passively dispensed to the cells and incubated for 30 min in which images were taken to count the cells using a single module imaging pipeline. Calcein-stained image was smoothed with a Gaussian filter (G, sigma=1) and used the Otsu Global thresholding method to detect objects with diameters of 20-100 pixel units (two classes, threshold correction factor=1.25). Neighboring pixels are grouped into objects and undesired clumped objects (e.g., two close overlapping objects) are declumped using intensity segregation. The counted cells were normalized to the control (e.g., cell interrogated with no drugs). All curves were fit with a sigmoid function and probed for statistical significance using an F-test in the linear region.
To verify the effects of targeting RAF1 by genome editing and enzymatic inhibition, H1299 cells were cultured, edited, assayed, and analyzed on the ACE platform following procedures for measuring transfection and knockout efficiencies. Images of the lung cancer cells that are transfected with and without pCRISPR targeting RAF1 and treated with the sorafenib inhibitor are analysed using the standardized imaging pipeline (FIG. 39B, FIG. 51). […] The effects of RAF protein kinase inhibitor sorafenib tosylate with and without CRISPR-mediated RAF1 targeting were examined.

[3] = tested on: H1299 cells; test: Cell viability over 7 days after RAF1 gene editing and sorafenib tosylate (FIG. 50); type: cell-based, Human; conditions: cells with both pCRISPR targeting RAF1 and 15 micromolar sorafenib tosylate added on day 2; after day 4
Experimental: MAPK/ERK pathway experiments. The MAPK/ERK pathway experiments used two key components: CRISPR-Cas9 genomic disruption of Raf1 and drug inhibition using sorafenib tosylate. In the macroscale, 0.75×10^5 cells/mL of H1299 cells were seeded on day 0 in 24-well plates. 600 ng of the pCRISPR plasmid targeting eGFP (control) or RAF1 was applied to the wells containing the cells on day 1. On day 3, drug conditions were added at different concentrations: 0 micromolar, 7.5 micromolar, 15 micromolar, 30 micromolar, 60 micromolar, 120 micromolar which were diluted in complete media. On day 5, 5 micromolar Calcein-AM violet stain (λex, lambda(ex)=408 nm and λem, lambda(em)=450 nm) diluted in 250 microliters fresh serum-free media was added to the cells and incubated at 37° C. for 30 min. The viability of cells was assessed by performing a fluorescence well scan using the CLARIOStar well-plate reader. The measured fluorescence was normalized to the control to determine the percent viability.
To assess the coupled effects of genome editing and drug inhibition, the H1299 cells with a pCRISPR targeting RAF1 or a control sgRNA were transfected and 15 micromolar sorafenib tosylate was added on day 2. […]
Four conditions were tested by acquiring fluorescent measurements over 7 days to assess proliferation. […] All readings were taken in triplicate and error bars represent +/−1 s.d.

[4] = On-chip beta-glucosidase colorimetric assay, blue channel pixel intensity (image-based feedback system); type: biochemical, Thermobaculum terrenum
Experimental: The assay on-chip included three different solutions loaded onto the DMF device reservoirs. First, a unit droplet of cell lysate was dispensed and actuated to each of the four assay mixing areas (see FIG. 5 for DMF design) using a starting voltage of 230 VRMS at 15 kHz. The lysate was prepared from a colony of BL21(DE3) transformed with a plasmid containing beta-glucosidase (BGL) gene (see FIG. 6 and FIG. 7 for plasmid map and sequence (SEQ ID NO: 1) respectively) that was grown at 37° C. and induced at 0.4 O.D (˜1.75 h starting at 0.1 O.D). The assay started by the addition of a droplet containing substrate to a droplet of cell lysate. The substrate solution contained 50 mM sodium citrate at pH 7.0 and 4 mM 4-nitrophenyl beta-D-glucopyranoside (MUG). The reactions were incubated at different times (0, 40, 80, and 120 min) and arrested by the addition of a unit droplet of 0.3 M Glycine-NaOH on the assay areas on the device. Solutions contained 0.05% final concentration of F-68 Pluronics. […]
The typical model for analyzing kinetics of a beta-glucosidase enzyme is to use a chromogenic model substrate para-nitrophenyl-beta-glucoside (pNPG) that will produce glucose and para-nitrophenol upon hydrolysis (FIG. 14). The liberation of para-nitrophenol (pNP) gives a yellow color product which can be monitored by an image-based feedback system. […]

[5] = BGL off-chip assay in well plate, absorbance at 405 nm; type: biochemical, Thermobaculum terrenum; conditions: well-plate reader
Experimental: Referring to FIG. 16, there is shown off-chip enzymatic assay with an absorbance readout as a function of time were collected every 30 min. Nine reactions containing equal volume of lysate with enzyme and substrate were mixed in a well of a 96 well plate. At 30 min intervals, the reaction was arrested by glycine-NaOH solution and an absorbance measurement was acquired from the product formation of pNP which gave a yellow color. Each experiment was repeated three times, and error bars are +/−1 SD.
Protein expression. The plasmid containing the cloned BGL1 gene was first transformed into E. coli BL21(DE3) for recombinant expression. The transformed cells were inoculated overnight in a 5 mL pre-culture. The following day, the culture was diluted to OD 0.05 in a 100 mL starter culture and grown at 37° C. with 200 rpm shaking. Upon reaching OD 0.4, expression of the BGL1 gene was induced by addition of 1 mM IPTG and induction was carried out under the same growth conditions for 8 hours. […]
BGL off-chip assay. […] Absorbance at 405 nm was immediately acquired after stopping each reaction on a TECAN infinite M200 plate reader with the following settings: 9 nm bandwidth, single reads per well, 25 flashes per reading, and 0 ms of settle time. Reactions with absorbance units >4 were diluted and the final absorbance was calculated from the diluted sample. […]

## CC(C)S[C@@H]1O[C@H](CO)[C@H](O)[C@H](O)[C@H]1O [IPTG, isopropyl beta-D-1-thiogalactopyranoside]
[1]
  IPTG concentration at which protein production was constant (comparable to basal levels): < 30 µM
[1]; induced at OD 0.4
  IPTG concentration giving highest protein production: above 200 micromolar

## CNC(=O)c1cc(Oc2ccc(NC(=O)Nc3ccc(Cl)c(C(F)(F)F)c3)cc2)ccn1 [sorafenib, sorafenib tosylate]
[2]; NCI-H1299, read-out: inhibitory sorafenib concentration achieving half-maximal viability level (IC50), on-chip, cells transfected with pCRISPR targeting RAF1, fitted sigmoid curve
  IC50: 13.2 µM
[2]; NCI-H1299, read-out: inhibitory sorafenib concentration achieving half-maximal viability level (IC50), on-chip, control (guide targeting eGFP), fitted sigmoid curve
  IC50: 7.54 µM
[2]; edited H1299 cells with CRISPR-mediated RAF1 targeting
  sensitivity in the linear micromolar range: 7 to 35 µM
[2]; on-chip
  fold reduction of IC50 with pCRISPR targeting RAF1 versus control: ~1.8 fold
[3]
  basal viability level: ~25%

B1: beta-glucosidase: β-glucosidase (BGL) from Thermobaculum terrenum in BL21(DE3) cell lysate, plasmid pET_BGL1 of Example 1 (protein, listed as Thermobaculum terrenum)
chain: MKHLVTTLLFGLVFAAAVRAQSSRVDSLLAAMTLAEKISLLHGAIDPTGEAGAGYVPGVPRLGIPAMRLTDGPAGIRTRHPATALPAPVALAASFDPELAYRYGHVMGIEGRARRHEVLLSPMVNIVRVPEAGRNFETFSEDPLLSAEMVAAEVRGIQDAGMMATVKHYVANNFENDRMRVNVVVDERTLREIYLPGFEAAIKAGAAAVMCAYNRVNGPYACDNEMLLTDILRDEWGFEGWVMTDWFAGHSLESLVRGLDQEMPGYTIPFSSPDMPLAPAVFADSLLAAVESGRIDEAYVDRAVRRILVQMEQFGLLDGESTPPEINIEAHAAVAREVAEAGAVLLRNENQTLPLSERDLQHLVVIGPTATRPLIGGGGSSRVQPFRTTSTLAALQELAGPQAQIRYVPGIDLDGMPVPSSALRTPDGQPGLLRQGADGTTQVDAQLDFTGERALPPGSQWTWTGTLTAPTAGVYELKLQTAGGVGTLSIDGQPVLRTGMFFSDASLIPTADSLENATYRIELQAGQQLSLTVQISGQVPSLPFLPAGQNPVQVRLAWVTPERRAAFLEEAAEAARAAHAAIVFVYEEGTEGRDRETLALRPDQDALVEAVAAANPRTTVVMNVGAPTLMPWAERVGAILLMWYPGQEGGWATADVLLGRANPAGRLPVTFPRRAEDAPTASPERYPGVDLTARYDEGIFVGYRWYDAQQIEPLFPFGHGLSYTTFAYENLRVEPDGDGFVVRFVVRNTGDRAGSDVPQVYLGPPENPPVPMAVRQLVGFRRVTLAPGEAQEVTVRIDGRALSYWSVEDHAWVKATGRRTLYVGASARDLRLQTEIDVQ
[4]
  first order rate constant kDMF: 4.64e-05 s⁻¹
[5]
  first order rate constant kPLATE: 0.504 h⁻¹

Source: US20200001302A1, “MICROFLUIDIC DEVICES, SYSTEMS, INFRASTRUCTURES, USES THEREOF AND METHODS FOR GENETIC ENGINEERING USING SAME” (VALORBEC, SOCIÉTÉ EN COMMANDITE, priority 2018, published 2020)
